From ChEMBL document CHEMBL3352658 (Eur J Med Chem, 2014)

Key:
Tumor necrosis factor [1] = biological target: T1, Tumor necrosis factor (Homo sapiens, UniProt P01375); experiment: Inhibition of recombinant human TNFalpha binding to TNF receptor 1-ECD at 100 uM by surface plasmon resonance-based in vitro competitive binding assay
Tumor necrosis factor [2] = biological target: T1, Tumor necrosis factor; experiment: Inhibition of TNFalpha in HEK293T cells transfected with plasmid hRluc/TK/ luc2P/NF-kBRE/Hygro plasmid after 12 hrs by Dual-glo luciferase assay system; format: cell-based, HEK-293T
Tumor necrosis factor [3] = biological target: T1, Tumor necrosis factor; experiment: Inhibition of TNFalpha in HEK293T cells transfected with plasmid hRluc/TK/ luc2P/NF-kBRE/Hygro plasmid at 30 uM after 12 hrs by Dual-glo luciferase assay system; format: cell-based; details: HEK-293T
Tumor necrosis factor [4] = biological target: T1, Tumor necrosis factor; experiment: Inhibition of TNFalpha in HEK293T cells transfected with plasmid hRluc/TK/ luc2P/NF-kBRE/Hygro plasmid at 90 uM after 12 hrs by Dual-glo luciferase assay system; format: cell-based; details: HEK-293T
Tumor necrosis factor [5] = biological target: T1, Tumor necrosis factor; experiment: Inhibition of TNFalpha (unknown origin) assessed as IkappaB-alpha phosphorylation in Hela cells after 15 mins by ELISA; format: cell-based

T1 sequence (P01375 whole entry, the tested form may be a part): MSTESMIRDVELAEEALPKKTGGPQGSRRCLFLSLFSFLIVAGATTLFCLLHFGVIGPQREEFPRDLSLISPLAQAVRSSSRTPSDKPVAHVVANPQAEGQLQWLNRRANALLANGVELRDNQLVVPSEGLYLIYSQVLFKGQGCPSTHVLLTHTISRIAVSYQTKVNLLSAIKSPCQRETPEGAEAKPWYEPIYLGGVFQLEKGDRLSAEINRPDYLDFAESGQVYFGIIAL

Compound | inhibition (Tumor necrosis factor [1]) | other results
CCOc1cc(C2NC(=O)NC(c3ccccc3)=C2C(C)=O)c(Br)c(Br)c1OCC(N)=O (stereo not drawn) | 16% | 
O=S(=O)(Nc1cc(Cl)c(O)c(Cl)c1)c1ccc2ccccc2c1 | 37% | IC50 (Tumor necrosis factor [2]; read-out: IC50): > 100 µM; inhibition (Tumor necrosis factor [3]): 30%
CCc1nnc(NC(=O)CSc2nnc(-c3ccc([N+](=O)[O-])cc3)n2-c2ccc(C)cc2)s1 | 35% | 
CCOc1cc(/C=C2\C(=O)Nc3ccc(Br)cc32)cc(Cl)c1O | 24% | inhibition (Tumor necrosis factor [4]): 40%
Cc1ccc(C(=O)C2=C(O)C(=O)N(c3cccc(C(F)(F)F)c3)C2c2ccccc2[N+](=O)[O-])cc1 (stereo not drawn) | 26% | 
CC(=O)Oc1ccc(C)cc1N1C(=O)c2cccc([N+](=O)[O-])c2C1=O | 68% | 
COc1ccc(C2Nc3ccccc3-c3nnc(SCc4ccccc4Cl)nc3O2)cc1C (stereo not drawn) | 32% | 
O=C(O)CCCNS(=O)(=O)c1ccc2c3c(cccc13)C(=O)N2 |  | IC50 (Tumor necrosis factor [2]; hek-293t): Not Active
O=C1Sc2c(S(=O)(=O)Nc3ccc(O)cc3)cc(S(=O)(=O)Nc3ccc(O)cc3)c3cccc1c23 | 52% | IC50 (Tumor necrosis factor [5]): 25.3 µM; IC50 (Tumor necrosis factor [2]; read-out: IC50): 14 µM
O=C1Nc2ccc(S(=O)(=O)Nc3ccc(O)c(Cl)c3)c3cccc1c23 | 28% | IC50 (Tumor necrosis factor [5]): 45.7 µM; IC50 (Tumor necrosis factor [2]; read-out: IC50): 42.3 µM
Cc1cccc(/N=C2/NC(=O)/C(=C/c3cc(C)n(-c4cc(C(=O)O)cc(C(=O)O)c4)c3C)S2)c1C | 32% | 
O=S(=O)(Nc1ccc(O)c(Cl)c1)c1ccc(F)cc1 | 31% | IC50 (Tumor necrosis factor [2]; read-out: IC50): > 100 µM; inhibition (Tumor necrosis factor [3]): 30%
N#CC1=C(N)Oc2n[nH]c(-c3ccccc3)c2C1c1ccc(OCC(N)=O)cc1 (stereo not drawn) | 20% | 
COC(=O)[C@@](NNc1ccc(C)c(C)c1)(NC(=O)c1ccc(Cl)cc1Cl)C(F)(F)F | 17% | 
